Results published in patent US20110244472A1, “Cancer stem cell immortalization” (priority 2008, published 2011).

What was measured:
[1] = test system: Oct3/4-GFP+ MCF7 cells; test: Secondary growth experiment in 12 well plates, manual cell counts; format: cell-based; conditions: 0.8 μM, cell counts over three days, FIG. 11
Description: (§1) Then, a secondary set of experiments were performed in 12 well plates in which 2000 cells/well were initially seeded and allowed to attach for one day. The following day (day 0), the medium was replaced with fresh medium containing 0.8 μM of each of these three compounds. Cell counts were then performed manually on triplicate wells over a period of three days. Oct3/4-GFP+ MCF7 cells are represented by the lower, dashed curve in all three panels.

[2] = test system: Oct3/4-GFP(+) MCF7 cells vs control Oct3/4-GFP(-) MCF cells; test: Initial small molecule screen in 384 well plates, CellTiter-Blue cell viability; format: cell-based; conditions: 5 μM, 72 hours
Description: Experiments were performed to determine whether the growth of Oct3/4-GFP(+) MCF cells could be inhibited with novel small molecules. Oct3/4-GFP(+) MCF7 cells were used as the target population. Control cells consisted of Oct3/4-GFP(−)MCF cells (lacking an Oct3/4-GFP cassette) that were infected with a GFP-expressing lentivirus as a way of controlling for GFP expression. Initial screenings were performed in 384 well plates on triplicate samples as follows.
(§2) First, the cell cultures were prepared by trypsinizing and resuspending the cells in MCF7 culture medium (alpha MEM, 10% FBS, 2 mM Glutamine, 1 mM Sodium Pyruvate, 1 mM non-essential amino acids, 100 U/ml Penicillin/Streptomycin) at a density of 4×10^4/ml. The screen was then performed by (1) diluting compounds to 30 μM using alpha MEM; (2) adding […] of compound-containing solution to each well (which will result in a final concentration of 5 μM); (3) adding 25 μl of cell suspension to each well (1000 cells/well); and (4) incubating the cells with compounds for 72 hours at 37° C., 5% CO2. Cell viability was then assessed using the CellTiter-Blue® assay by Promega, modified as follows. Since there were 30 ul medium in each well, 6 μl CellTiter-Blue was added to each well. The plates were then incubated at 37° C. for 2.5 hours. The plates were then read on a SpectraMax M5 Microplate Reader using the wavelength of excitation 560 nm/emission 590 nm.
as §1

[3] = test system: non-stem cell and Oct3/4-GFP+ CSCs prepared from three breast cancer cell lines, MCF7, MB231 and MB453; test: LOPAC screen for CSC-specific inhibitory activity; format: cell-based; conditions: CSCs from at least one of MCF7, MB231, MB453; FIG. 14A
Description: (§3) FIG. 14A-E. Testing various chemical compounds for CSC-specific inhibitory activity in non-stem MCF7, MDA-MB231 or MDA-MB453 or in Oct3/4-GFP+ CSC cells of those same lines. CSC are denoted by solid circles ([…])_ and non-stem cells are denoted by solid squares (▪).
as §2
(§4) 1280 compounds from the Library of Pharmacologically Active Compounds (“LOPAC”) were screened for activity against non-stem cell and Oct3/4-GFP+ CSCs prepared from three breast cancer cell lines, MCF7, MB231 and MB453 using methods set forth above.

[4] = test system: MDA-MB231 Oct3/4-GFP+ CSC cells; test: CSC-specific inhibitory activity test, MDA-MB231; format: cell-based; conditions: 4 μM, FIG. 14B
Text: as §3, §4

[5] = test system: MDA-MB453 Oct3/4-GFP+ CSC cells; test: CSC-specific inhibitory activity test, MDA-MB453; format: cell-based; conditions: 10 nM, FIG. 14D and E
Text: as §3, §4

[6] = test system: MCF7 Oct3/4-GFP+ CSC cells; test: CSC-specific inhibitory activity test, MCF7; format: cell-based; conditions: 7 nM, FIG. 14C
Text: as §3, §4

[7] = test system: MCF7 cells and Oct3/4-GFP+MCF7 cells; test: Hoechst 33342 side population (SP) analysis; format: cell-based; conditions: 20 μM Reserpine; MCF7 and Oct3/4-GFP+MCF7 cells; Hoechst 33342 exclusion
Text: In other studies, Oct3/4-GFP+MCF7 cells were examined by qRT-PCR for expression of the breast cancer CSC markers CD133 and Oct3/4. After normalizing to GAPDH, the ratios of these transcripts in Oct3/4-GFP+MCF7 cells and non-CSC-MCF7 cells were 6.3 for CD133 and 2.5 for Oct3/4. […] The SP is due to CSCs ability to exclude the dye Hoechst 33342 and reflects high expression of […] transporters such as MDR1 and BRCP (30). […] These fractions could also be reduced by >70% following exposure to 20 μM Reserpine, which inhibits ABC transporters (30). Moreover, the overall mean fluorescence intensity of the entire Oct3/4-GFP+MCF population was two-fold lower than that of the MCF7 population. Thus, based on independent qRT-PCR assessments of CSC gene expression profiles and on uptake/exclusion of Hoechst 33342, one can conclude that the Oct3/4-GFP+MCF7 population consists of highly enriched and stable cells that are unable to differentiate into TACs.

[8] = test system: MCF7 cells and Oct3/4-GFP+MCF7 CSCs; test: Differential chemotherapeutic responses, viable adherent cells by trypan blue exclusion; format: cell-based; conditions: number of viable adherent cells over time, triplicate plates
Description: FIG. 6. Differential chemotherapeutic responses of MCF7 and Oct3/4-GFP+MCF7 cells. 10^5 unfractionated, MCF7 cells (dotted line) or Oct3/4GFP+MCF7 cells (broken line) were seeded into 6 well plates and allowed to achieve ca. 30-50% confluence. The indicated concentrations of adriamycin, etoposide, 5-fluorouracil, cis-platinum, methotrexate, and taxol were then added (day 0). The total number of viable adherent cells was then determined at the indicated times by trypan blue exclusion. […] Note that in most cases Oct4/4-GFP+MCF7 actually grew in the presence of all agents. These experiments were repeated at least two additional times with similar outcomes.
5. Differential chemosensitivities of Oct3/4-GFP+MCF7 cells. It is believed that CSCs are more resistant to chemotherapeutic agents than TACs, thus at least partly accounting for the propensity of many tumors to relapse after an initial response (12,27,36). To test this idea, MCF7 cells and Oct3/4-GFP+MCF7 CSCs were exposed to six different chemotherapeutic agents commonly employed to treat breast cancer.

[9] = test system: non-stem and CSC versions of MCF7, MDA-MB453 and BTL12 cells; test: Effect of topoisomerase I shRNA knockdown on cultures of non-stem and CSC cells; format: cell-based; conditions: doxycycline-induced, FIG. 20A-C
Text: FIG. 20A-C. Evaluation of the effect of doxycycline-inducible shRNA targeting topoisomerase I in non-stem MCF7, MDA-MB453 or BTL12 or in Oct3/4-GFP+ CSC cells of those same lines. (A) MCF7. (B) MDA-MB453. (C) BTL12.
(§5) To test this hypothesis further, small hairpin RNA (shRNA) was used to knockdown topoisomerase I using a conditional shRNA expression system (pTRIPZ vector-Origene, Inc.), in which expression of the shRNA is induced by doxycycline. The shRNA used had the sequence: […] […] (SEQ ID NO:10, NM_003286).

[10] = test system: tumor xenografts from non-stem and CSC MCF7 cells; test: Effect of topoisomerase I shRNA knockdown on tumor xenografts; format: in vivo; conditions: doxycycline-induced knockdown; xenografts in nude mice; FIG. 21A-B
Text: FIG. 21A-B. Evaluation of the effect of doxycycline-inducible shRNA targeting topoisomerase I in tumor xenografts generated from (A) non-stem MCF7 cells or (B) Oct3/4-GFP(+) MCF7 CSC cells.
as §5

[11] = test system: topoisomerase I; test: Doxycycline-induced shRNA knockdown of topoisomerase I expression (mRNA, Western blot); format: cell-based, human; conditions: FIGS. 17 and 18
Text: FIG. 17. Topoisomerase I expression in topoisomerase I shRNA-treated cells.
FIG. 18. Western blot analysis of topoisomerase I expression in CSC and non-stem cell versions of MCF7, MDA-MB453, BTL12 and MDA-MB231 cells with or without doxycycline-induced (“dox”) shRNA knockdown.
as §5

Molecule: CCn1cnc2c(Nc3cccc(Cl)c3)nc(N[C@@H]3CCCC[C@@H]3N)nc21.Cl (relative stereo) [CGP74514A, N2-(cis-2-aminocyclohexyl)-N6-(3-chlorophenyl)-9-ethyl-9H-purine-2,6-diamine hydrochloride]
- selective inhibition of Oct3/4-GFP+ MCF cells [1]: Selective inhibition
- selectivity for Oct3/4-GFP(+) MCF7 cells in initial screening [2]: potentially selective agents

Molecule: Cl.NCC1OC(C23CC4CC(CC(C4)C2)C3)Cc2c1ccc(O)c2O (stereo not shown) [A77636, 3-(1′-adamantyl)-1-aminomethyl-3,4-dihydro-5,6-dihydroxy-1H-2-benzopyran hydrochloride]
- selective inhibition of Oct3/4-GFP+ MCF cells [1]: Selective inhibition
- selective inhibition of growth of CSCs [3]: selectively inhibited growth of CSCs
- selectivity for Oct3/4-GFP(+) MCF7 cells in initial screening [2]: potentially selective agents

Molecule: O=C1C=C(NCCN2CCOCC2)C(=O)c2ncccc21 [JUN1111]
- CSC-selective inhibitory activity [4]: CSC-selective inhibitory activity

Molecule: NC(=S)N/N=C/c1ccc([N+](=O)[O-])s1 [NSC725]
- CSC-selective inhibitory activity [5]: CSC-selective activity
- CSC-selective inhibitory activity [6]: CSC-selective inhibitory activity

Molecule: Nc1nc(N)c2[nH]cnc2n1 [NSC743]
- CSC-selective inhibitory activity [5]: CSC-selective activity

Molecule: COC(=O)[C@H]1[C@H]2C[C@@H]3c4[nH]c5cc(OC)ccc5c4CCN3C[C@H]2C[C@@H](OC(=O)c2cc(OC)c(OC)c(OC)c2)[C@@H]1OC [Reserpine]
- reduction of side population (SP) fractions [7]: > 70%

Molecule: CC(=O)c1c(O)c(C)c(O)c(Cc2c(O)c3c(c(C(=O)/C=C/c4ccccc4)c2O)OC(C)(C)C=C3)c1O [Rottlerin, (Z)-1-[6-[(3-acetyl-2,4,6-trihydroxy-5-methylphenyl)methyl]-5,7-dihydroxy-2,2-dimethylchromen-8-yl]-3-phenylpro-2-en-1-one]
- selective inhibition of Oct3/4-GFP+ MCF cells [1]: Selective inhibition
- selective inhibition of growth of CSCs [3]: selectively inhibited growth of CSCs
- selectivity for Oct3/4-GFP(+) MCF7 cells in initial screening [2]: potentially selective agents

Molecule: CC(=O)O[C@H]1C(=O)[C@@]2(C)[C@H]([C@H](OC(=O)c3ccccc3)[C@]3(O)C[C@H](OC(=O)[C@H](O)[C@@H](NC(=O)c4ccccc4)c4ccccc4)C(C)=C1C3(C)C)[C@]1(OC(C)=O)CO[C@@H]1C[C@@H]2O [taxol]
- sensitivity of Oct3/4-GFP+MCF7 cells relative to MCF7 cells [8]: significantly more sensitive

Molecule: CC1(C)CCC2=C(O1)c1ccccc1C(=O)C2=O [β-lapachone]
- selective inhibition of growth of CSCs [3]: selectively inhibited growth of CSCs

B1: shRNA: doxycycline-inducible small hairpin RNA homologous to the topoisomerase I gene, SEQ ID NO:10, pTRIPZ vector (nucleic acid)
chain: TGCTGTTGACAGTGAGCGCGCTGATTATAAACCTAAGAAATAGTGAAGCCACAGATGTATTTCTTAGGTTTATAATCAGCATGCCTACTGCCTCGGA
- effect of knockdown on CSCs relative to non-stem cells (viable cells) [9]: more profound on CSCs relative to their non-stem cell counterparts
- reduction in tumor size, CSC-generated vs non-stem tumors [10]: proportionally greater for the CSC-generated tumors
- tumor size [10]: decreased the size of tumors resulting from both non-stem and CSC MCF7 cells
- topoisomerase I mRNA and protein expression [11]: successfully knocked-down mRNA and protein expression
